According to the NIST ThermoML archive (doi:10.1021/je0342825):
Numbers after ± are expanded uncertainties.

How the values were obtained:
[1] = xn = mol fraction of the nth substance listed; conditions: 101.3 kPa, Liquid
[2] = 101.3 kPa, Liquid

| Structure (SMILES) | mass density ([2]; 293.15 K) [kg/m3] | speed of sound ([2]; 293.15 K) [m/s] | viscosity ([2]; 293.15 K) [mPa·s] | mass density ([2]; 298.15 K) [kg/m3] | speed of sound ([2]; 298.15 K) [m/s] | viscosity ([2]; 298.15 K) [mPa·s] | mass density ([2]; 303.15 K) [kg/m3] | speed of sound ([2]; 303.15 K) [m/s] | viscosity ([2]; 303.15 K) [mPa·s] | further results |
| --- | --- | --- | --- | --- | --- | --- | --- | --- | --- | --- |
| CC(=O)O [acetic acid] + COC(C)=O | – | – | – | – | – | – | – | – | – | mass density ([1]; 293.15 K, x1 = 1): 1049.3 ± 0.57 kg/m3; speed of sound ([1]; 293.15 K, x1 = 1): 1149 ± 2 m/s; viscosity ([1]; 293.15 K, x1 = 1): 1.211 ± 0.016 mPa·s; mass density ([1]; 298.15 K, x1 = 1): 1043.65 ± 0.56 kg/m3; speed of sound ([1]; 298.15 K, x1 = 1): 1132 ± 2 m/s; viscosity ([1]; 298.15 K, x1 = 1): 1.115 ± 0.015 mPa·s; mass density ([1]; 303.15 K, x1 = 1): 1038 ± 0.56 kg/m3; speed of sound ([1]; 303.15 K, x1 = 1): 1115 ± 2 m/s; viscosity ([1]; 303.15 K, x1 = 1): 1.034 ± 0.014 mPa·s |
| CCOC(C)=O [ethyl acetate] + CC(=O)O | – | – | – | – | – | – | – | – | – | mass density ([1]; 293.15 K, x2 = 0): 900.52 ± 0.3 kg/m3; speed of sound ([1]; 293.15 K, x2 = 0): 1163 ± 1 m/s; viscosity ([1]; 293.15 K, x2 = 0): 0.452 ± 0.007 mPa·s; mass density ([1]; 298.15 K, x2 = 0): 894.43 ± 0.31 kg/m3; speed of sound ([1]; 298.15 K, x2 = 0): 1140 ± 1 m/s; viscosity ([1]; 298.15 K, x2 = 0): 0.426 ± 0.006 mPa·s; mass density ([1]; 303.15 K, x2 = 0): 888.3 ± 0.32 kg/m3; speed of sound ([1]; 303.15 K, x2 = 0): 1118 ± 1 m/s; viscosity ([1]; 303.15 K, x2 = 0): 0.403 ± 0.006 mPa·s |
| CCOC(C)=O [ethyl acetate] | 900.52 ± 0.3 | 1163 ± 1 | 0.452 ± 0.007 | 894.43 ± 0.31 | 1140 ± 1 | 0.426 ± 0.006 | 888.3 ± 0.32 | 1118 ± 1 | 0.403 ± 0.006 | – |
| CC(=O)O [acetic acid] | 1049.3 ± 0.57 | 1149 ± 2 | 1.211 ± 0.016 | 1043.65 ± 0.56 | 1132 ± 2 | 1.115 ± 0.015 | 1038 ± 0.56 | 1115 ± 2 | 1.034 ± 0.014 | – |
| CO [methanol] + CC(=O)O | – | – | – | – | – | – | – | – | – | mass density ([1]; 293.15 K, x2 = 0): 791.9 ± 0.46 kg/m3; speed of sound ([1]; 293.15 K, x2 = 0): 1121 ± 1 m/s; viscosity ([1]; 293.15 K, x2 = 0): 0.585 ± 0.008 mPa·s; mass density ([1]; 298.15 K, x2 = 0): 787.2 ± 0.47 kg/m3; speed of sound ([1]; 298.15 K, x2 = 0): 1104 ± 1 m/s; viscosity ([1]; 298.15 K, x2 = 0): 0.545 ± 0.008 mPa·s; mass density ([1]; 303.15 K, x2 = 0): 782.48 ± 0.47 kg/m3; speed of sound ([1]; 303.15 K, x2 = 0): 1088 ± 1 m/s; viscosity ([1]; 303.15 K, x2 = 0): 0.508 ± 0.007 mPa·s |
| CCO [ethanol] | 789.75 ± 0.46 | 1162 ± 1 | 1.187 ± 0.015 | 785.46 ± 0.47 | 1145 ± 1 | 1.082 ± 0.014 | 781.15 ± 0.47 | 1128 ± 1 | 0.987 ± 0.013 | – |

Further lines, with some results ahead:

| mass density ([2]; 293.15 K) [kg/m3] | speed of sound ([2]; 293.15 K) [m/s] | viscosity ([2]; 293.15 K) [mPa·s] | mass density ([2]; 298.15 K) [kg/m3] | speed of sound ([2]; 298.15 K) [m/s] | viscosity ([2]; 298.15 K) [mPa·s] | mass density ([2]; 303.15 K) [kg/m3] | speed of sound ([2]; 303.15 K) [m/s] | viscosity ([2]; 303.15 K) [mPa·s] | Structure (SMILES) | further results |
| --- | --- | --- | --- | --- | --- | --- | --- | --- | --- | --- |
| 791.9 ± 0.46 | 1121 ± 1 | 0.585 ± 0.008 | 787.2 ± 0.47 | 1104 ± 1 | 0.545 ± 0.008 | 782.48 ± 0.47 | 1088 ± 1 | 0.508 ± 0.007 | CO [methanol] | – |
| – | – | 1.003 ± 0.013 | – | – | 0.89 ± 0.012 | – | – | 0.797 ± 0.011 | O [water] | – |
